Measurements: ChEMBL document CHEMBL1201862, “PubChem BioAssay data set” (2004)
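Each compound was tested at five concentrations against cells in 96-well plates for 48 hours. At the GI50, growth is halved.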 Active and inactive are the calls of the source. No stated cut-off is given here; in the data, active = GI50 up to about 1.1 µM and inactive = higher.

What was measured:
Test in all cases: NCI anticancer screen, dose series, 48 h
HT-29 = test system: HT-29
SK-MEL-2 = test system: SK-MEL-2
EKVX = test system: EKVX
NCI-H522 = test system: NCI-H522
LOX IMVI = test system: LOX IMVI
A498 = test system: A498
MDA-MB-231 = test system: MDA-MB-231
COLO 205 = test system: COLO 205
SK-MEL-28 = test system: SK-MEL-28
SF-295 = test system: SF-295
SK-MEL-5 = test system: SK-MEL-5
KM12 = test system: KM12
RXF 393 = test system: RXF 393
NCI-H23 = test system: NCI-H23
MDA-MB-435 = test system: MDA-MB-435
NCI-H460 = test system: NCI-H460
RPMI-8226 = test system: RPMI-8226
HCT-116 = test system: HCT-116
MDA-N = test system: MDA-N
U-251 = test system: U-251
IGROV-1 = test system: IGROV-1
SW-620 = test system: SW-620
MCF7 = test system: MCF7
UACC-257 = test system: UACC-257
OVCAR-4 = test system: OVCAR-4
HL-60 = test system: HL-60
SF-268 = test system: SF-268
CAKI-1 = test system: CAKI-1
SK-OV-3 = test system: SK-OV-3
Malme-3M = test system: Malme-3M
NCI/ADR-RES = test system: NCI/ADR-RES
SN12C = test system: SN12C
NCI-H226 = test system: NCI-H226
UO-31 = test system: UO-31
CCRF-CEM = test system: CCRF-CEM
UACC-62 = test system: UACC-62
DU-145 = test system: DU-145
MOLT-4 = test system: MOLT-4
SR = test system: SR
HCC 2998 = test system: HCC 2998
BT-549 = test system: BT-549
A549 = test system: A549
OVCAR-5 = test system: OVCAR-5
HOP-62 = test system: HOP-62
Hs-578T = test system: Hs-578T
HOP-92 = test system: HOP-92
ACHN = test system: ACHN
OVCAR-3 = test system: OVCAR-3
PC-3 = test system: PC-3
OVCAR-8 = test system: OVCAR-8
HCT-15 = test system: HCT-15
786-0 = test system: 786-0
SNB-19 = test system: SNB-19
M14 = test system: M14
TK-10 = test system: TK-10
T47D = test system: T47D
SF-539 = test system: SF-539
SNB-75 = test system: SNB-75
K562 = test system: K562

In the case of `COc1cc2c(cc1OC)C13CCN4CC5CCOC6CC(=O)N2C1C6C5CC43` (stereo not given), the GI50 (HT-29) is reported as > 100 µM (inactive), the GI50 (SK-MEL-2) is reported as > 100 µM (inactive) and the GI50 (EKVX) is reported as > 100 µM (inactive). For the same compound, the GI50 (NCI-H522) was > 100 µM (inactive), the GI50 (LOX IMVI) was > 100 µM (inactive) and the GI50 (A498) was > 100 µM (inactive). The GI50 (MDA-MB-231) was > 100 µM (inactive), the GI50 (COLO 205) was > 100 µM (inactive) and the GI50 (SK-MEL-28) was > 100 µM (inactive). For the same compound, the GI50 (SF-295) was > 100 µM (inactive), the GI50 (SK-MEL-5) was > 100 µM (inactive) and the GI50 (KM12) was > 100 µM (inactive). The GI50 (RXF 393) was > 100 µM (inactive), the GI50 (NCI-H23) was > 100 µM (inactive) and the GI50 (MDA-MB-435) was > 100 µM (inactive). The GI50 (NCI-H460) was > 100 µM (inactive), the GI50 (RPMI-8226) was > 100 µM (inactive) and the GI50 (HCT-116) was > 100 µM (inactive). For the same compound, the GI50 (MDA-N) was > 100 µM (inactive), the GI50 (U-251) was > 100 µM (inactive) and the GI50 (IGROV-1) was > 100 µM (inactive). For the same compound, the GI50 (SW-620) was > 100 µM (inactive), the GI50 (MCF7) was > 100 µM (inactive) and the GI50 (UACC-257) was > 100 µM (inactive). The GI50 (OVCAR-4) was > 100 µM (inactive), the GI50 (HL-60) was > 100 µM (inactive) and the GI50 (SF-268) was > 100 µM (inactive). For the same compound, the GI50 (CAKI-1) was > 100 µM (inactive), the GI50 (SK-OV-3) was > 100 µM (inactive) and the GI50 (Malme-3M) was > 100 µM (inactive). The GI50 (NCI/ADR-RES) was > 100 µM (inactive), the GI50 (SN12C) was > 100 µM (inactive) and the GI50 (NCI-H226) was > 100 µM (inactive). The GI50 (UO-31) was > 100 µM (inactive), the GI50 (CCRF-CEM) was 54.5 µM (inactive) and the GI50 (UACC-62) was > 100 µM (inactive). The GI50 (DU-145) was > 100 µM (inactive), the GI50 (MOLT-4) was 1.81 µM (inactive) and the GI50 (SR) was 2.65 µM (inactive). The GI50 (HCC 2998) was > 100 µM (inactive), the GI50 (BT-549) was > 100 µM (inactive) and the GI50 (A549) was > 100 µM (inactive). The GI50 (OVCAR-5) was > 100 µM (inactive), the GI50 (HOP-62) was > 100 µM (inactive) and the GI50 (Hs-578T) was > 100 µM (inactive). The GI50 (HOP-92) was > 100 µM (inactive), the GI50 (ACHN) was > 100 µM (inactive) and the GI50 (OVCAR-3) was > 100 µM (inactive). For the same compound, the GI50 (PC-3) was > 100 µM (inactive), the GI50 (OVCAR-8) was > 100 µM (inactive) and the GI50 (HCT-15) was > 100 µM. For the same compound, the GI50 (786-0) was > 100 µM (inactive), the GI50 (SNB-19) was > 100 µM (inactive) and the GI50 (M14) was > 100 µM (inactive). The GI50 (TK-10) was > 100 µM (inactive), the GI50 (T47D) was > 100 µM (inactive) and the GI50 (SF-539) was > 100 µM (inactive).

For `O=S(=O)(O)c1ccc(Nc2ccnc3cc(Cl)ccc23)cc1`, the GI50 (HT-29) was > 100 µM (inactive), the GI50 (SK-MEL-2) was > 100 µM (inactive) and the GI50 (EKVX) was > 100 µM (inactive). The GI50 (NCI-H522) was > 100 µM (inactive), the GI50 (LOX IMVI) was > 100 µM (inactive) and the GI50 (A498) was > 100 µM (inactive). The GI50 (MDA-MB-231) was > 100 µM (inactive), the GI50 (COLO 205) was > 100 µM (inactive) and the GI50 (SK-MEL-28) was > 100 µM (inactive). The GI50 (SF-295) was > 100 µM (inactive), the GI50 (SK-MEL-5) was > 100 µM (inactive) and the GI50 (KM12) was > 100 µM (inactive). For the same compound, the GI50 (RXF 393) was > 100 µM (inactive), the GI50 (NCI-H23) was > 100 µM (inactive) and the GI50 (MDA-MB-435) was > 100 µM (inactive). The GI50 (RPMI-8226) was > 100 µM (inactive), the GI50 (HCT-116) was > 100 µM (inactive) and the GI50 (MDA-N) was > 100 µM (inactive). For the same compound, the GI50 (U-251) was > 100 µM (inactive), the GI50 (IGROV-1) was > 100 µM (inactive) and the GI50 (SW-620) was > 100 µM (inactive). The GI50 (MCF7) was > 100 µM (inactive), the GI50 (UACC-257) was > 100 µM (inactive) and the GI50 (OVCAR-4) was > 100 µM (inactive). The GI50 (HL-60) was > 100 µM (inactive), the GI50 (SF-268) was > 100 µM (inactive) and the GI50 (CAKI-1) was > 100 µM (inactive). For the same compound, the GI50 (SK-OV-3) was > 100 µM (inactive), the GI50 (Malme-3M) was > 100 µM (inactive) and the GI50 (NCI/ADR-RES) was > 100 µM (inactive). For the same compound, the GI50 (SN12C) was > 100 µM (inactive), the GI50 (NCI-H226) was > 100 µM (inactive) and the GI50 (UO-31) was > 100 µM (inactive). For the same compound, the GI50 (CCRF-CEM) was > 100 µM (inactive), the GI50 (UACC-62) was > 100 µM (inactive) and the GI50 (DU-145) was > 100 µM (inactive). The GI50 (MOLT-4) was > 100 µM (inactive), the GI50 (SR) was > 100 µM (inactive) and the GI50 (HCC 2998) was > 100 µM (inactive). The GI50 (BT-549) was > 100 µM (inactive), the GI50 (A549) was > 100 µM (inactive) and the GI50 (OVCAR-5) was > 100 µM (inactive). The GI50 (HOP-62) was > 100 µM (inactive), the GI50 (Hs-578T) was > 100 µM (inactive) and the GI50 (HOP-92) was > 100 µM (inactive). The GI50 (ACHN) was > 100 µM (inactive), the GI50 (OVCAR-3) was > 100 µM (inactive) and the GI50 (PC-3) was > 100 µM (inactive). For the same compound, the GI50 (OVCAR-8) was > 100 µM (inactive), the GI50 (SNB-75) was > 100 µM (inactive) and the GI50 (HCT-15) was > 100 µM. For the same compound, the GI50 (K562) was > 100 µM (inactive), the GI50 (786-0) was > 100 µM (inactive) and the GI50 (SNB-19) was > 100 µM (inactive). For the same compound, the GI50 (M14) was > 100 µM (inactive), the GI50 (TK-10) was > 100 µM (inactive) and the GI50 (T47D) was > 100 µM (inactive). The GI50 (SF-539) was > 100 µM (inactive).
